{"source": "patent EP2353599A1", "about": "“8-hydroxyquinolines as inhibitors of cathepsin B” (University of Ljubljana, priority 2010, dated 2011)", "key": {"Cathepsin B [1]": {"target": "T1, Cathepsin B (Homo sapiens, UniProt P07858)", "test": "Cathepsin B endopeptidase activity, enzyme kinetics with substrate Z-RR-AMC", "assay_type": "biochemical", "conditions": "endopeptidase activity, substrate Z-RR-AMC, pH 6.0, 37°C", "method": "The effect of 8-hydroxyquinolines on cathepsin B enzymatic activity was assessed using enzyme kinetics. First, the effect of 8-hydroxyquinolines on cathepsin B endopeptidase activity was assessed using the cathepsin B specific endopeptidase substrate Z-RR-AMC. 5 µl of the Z-RR-AMC (final concentration 60, 180 and 360 µM) and 5 µl of respective compound at increasing concentrations were added to wells of a black microplate. 90 µl of human recombinant cathepsin B was then added to a final concentration of 0.4 nM in activation buffer (100 mM phosphate buffer, pH 6.0 with 0.1 % PEG, 5 mM DTT and 1.5 mM EDTA). All assay mixtures contained a constant amount of DMSO, i.e. 5 %. Formation of fluorescent degradation product was continuously monitored at 380 nm ± 20 nm excitation and […] ± 10 nm emission wavelengths on Tecan Safire^2™ at 37°C. Mechanism and the constant of inhibition (Ki) of cathepsin B endopeptidase activity were determined using the graphical method according to Cornish-Bowden (Cornish-Bowden A: A Simple Graphical Method for Determining the Inhibition Constants of Mixed, Uncompetitive and Non-Competitive Inhibitors. Biochem J 1974, 137:143-4.) and using the SigmaPlot® 11, Enzyme Kinetics Module™ 1.3. Table I. Results of testing the compounds according to Formula (I) on cathepsin B endopeptidase activity."}, "Cathepsin B [2]": {"target": "T1, Cathepsin B", "conditions": "cited from earlier work; for less potent in vitro than parent inhibitor: esterified cell permeable derivatives versus E-64 and CA-074; for inhibit cathepsin B: background"}, "MCF-10A neoT cells [3]": {"test_system": "MCF-10A neoT cells", "test": "Extracellular DQ-collagen IV degradation, fluorescence intensity in medium", "assay_type": "cell-based", "conditions": "3 h, DQ-collagen IV 5 µg/ml", "method": "Two experiments were set to differentiate between inhibition of intracellular and extracellular DQ-collagen IV degradation. Inhibition of extracellular DQ-collagen IV degradation was observed by monitoring the fluorescence intensity of degraded DQ-collagen IV in the medium in which MCF-10A neoT cells were grown. 5 × 10^4 MCF-10A neoT cells were plated into wells of a 96-well black plate and were allowed to attach over night. Cells were then incubated with 100 µl PBS containing 5-nitro-8-hydroxyquinoline, CA-074 or CA-074Me (10 µM) and DQ-collagen IV (5 µg/ml) for 3 h. Afterwards, the 80 µl of PBS was transferred into the empty wells and the fluorescence intensity was measured at 495 nm ± 5 nm excitation and 515 nm ± 5 nm emission wavelengths on Tecan Safire^2™. The experiment was performed in 8 parallels and DMSO was used as a control."}, "MCF-10A neoT cells [4]": {"test_system": "MCF-10A neoT cells", "test": "Intracellular DQ-collagen IV degradation by flow cytometry", "assay_type": "cell-based", "conditions": "50 µM, shift in fluorescence intensity", "method": "Inhibition of intracellular DQ-collagen IV degradation was observed by flow cytometry by a shift in fluorescence intensity. 5 × 10^4 MCF-10A neoT cells in complete medium were plated into the wells of a 24-well plate and allowed to attach over night. Afterwards, the medium was replaced with 500 µl of serum free medium with 5-nitro-8-hydroxyquinoline, CA-074 or CA-074Me (50 µM). After 2 h incubation the medium was again replaced with serum free medium containing inhibitors (50 µM) and DQ-collagen IV (5 µg/ml). DMSO was used as a control. For the experiment only viable cells were selected using propidium iodide. The measurements were performed on a FACS Calibur instrument (Beckton Dickinson, Inc.)."}, "Cathepsin B [5]": {"target": "T1, Cathepsin B", "test": "Reversibility by mass spectrometry (ESI-MS of cathepsin B after incubation and dialysis)", "assay_type": "binding", "conditions": "equimolar inhibitor, 1 h room temperature, dialysis", "method": "Third, reversibility of 5-nitro-8-hydroxyquinoline was also checked with mass spectrometry. Cathepsin B (4.4 µM) was activated in the activation buffer for 5 min at 37 °C. Afterwards, an equimolar amount of the inhibitor was added to the enzyme and incubated for 1 h at room temperature. The mixture was dialyzed against water five times using Microcon Centrifugal Filter Devices YM-10 to avoid salt interferences and to remove unbound molecules of the test compound. Samples were then prepared by adding an equal volume of acetonitrile containing 0.1 % formic acid and analyzed with ESI-MS on an AutoSpec Q instrument. As a positive control CA-074 was used."}, "Cathepsin B [6]": {"target": "T1, Cathepsin B", "test": "Reversibility with active site probe DCG-04 (labelling, SDS-PAGE, blot)", "assay_type": "binding", "conditions": "0.1, 1, 10 and 50 µM inhibitor, 1 h, then 2 µM DCG-04", "text": "Second, the reversibility of 5-nitro-8-hydroxyquinoline was also studied with the active site probe DCG-04. DCG-04 is a derivative of an irreversible epoxysuccinic inhibitor of cysteine proteases E-64 with an additional biotin moiety which enables detection of covalently modified proteases with labelling intensity correlating with enzymatic activity (Greenbaum D, Medzihradszky KF, Burlingame A, Bogyo M: Epoxide electrophiles as activity-dependent cysteine protease profiling and discovery tools. Chem Biol 2000, 7: 569-81.). 1 µg of recombinant cathepsin B in 50 mM Tris, pH 5.5 containing 1 mM DTT, 5 mM MgCl2 and 250 mM sucrose was incubated with 0.1, 1, 10 in 50 µM 5-nitro-8-hydroxyquinoline (diluted from 10 mM DMSO stocks) for 1 h at room temperature. Samples were then labelled with 2 µM DCG-04 for an additional h at room temperature. After boiling in reducing sample buffer for 10 min samples were analyzed by 12.5 % SDS-PAGE and transferred to a nitrocellulose membrane. The latter was then blocked with 0.5 % Tween 20 in PBS overnight at 4 °C and incubated with 1 µg/ml streptavidin-horseradish peroxidase in 0.2 % Tween 20 in PBS for 1 h at room temperature. The membrane was washed five times with 0.2 % Tween 20 in PBS and the spots on the membrane were visualized with 0.5 mg/ml 3,3'-diaminobenzidine and 0.0005 % (v/v) H2O2 in 50 mM Tris, pH 7.5. […]"}}, "note": "Entries after “also recorded” stand apart in the source; their conditions may differ.", "data": [{"smiles": "O=[N+]([O-])c1cc(CN2CCCC(O)C2)c(O)c2ncccc12", "note": "(racemic) [Compound 8, 7-((3-Hydroxypiperidin-1-yl)methyl)-5-nitro-8-hydroxyquinoline]", "values": [{"measurement": "Ki", "setting": "Cathepsin B [1]", "value": "110 ± 3.1", "unit": "µM"}]}, {"smiles": "CCCNC(=O)[C@H]1O[C@@H]1C(=O)N[C@H](C(=O)N1CCC[C@H]1C(=O)OC)[C@@H](C)CC", "note": "[CA-074Me]", "values": [{"measurement": "less potent in vitro than parent inhibitor", "setting": "Cathepsin B [2]", "value": "100-1000 fold"}, {"measurement": "inhibition of extracellular DQ-collagen IV degradation", "setting": "MCF-10A neoT cells [3]; 10 µM", "value": 33.8, "unit": "%"}, {"measurement": "inhibition of intracellular DQ-collagen IV degradation", "setting": "MCF-10A neoT cells [4]", "value": "significantly inhibited"}]}, {"smiles": "CCCNC(=O)[C@H]1O[C@@H]1C(=O)N[C@H](C(=O)N1CCC[C@H]1C(=O)O)[C@@H](C)CC", "note": "[CA-074]", "values": [{"measurement": "inhibit cathepsin B", "setting": "Cathepsin B [2]", "value": "nanomolar range"}, {"measurement": "inhibition at 10 µM", "setting": "MCF-10A neoT cells [3]; Homo sapiens, MCF-10A-neoT", "value": 31.1, "unit": "%"}, {"measurement": "inhibition of intracellular DQ-collagen IV degradation", "setting": "MCF-10A neoT cells [4]", "value": "only slightly inhibited; also recorded: did not"}, {"measurement": "change of mass of the enzyme", "setting": "Cathepsin B [5]", "value": 384, "unit": "Da"}, {"measurement": "intensity of spots (DCG-04 labelling) versus DMSO control", "setting": "Cathepsin B [6]", "value": "concentration dependent loss of spot intensity"}]}, {"smiles": "O=[N+]([O-])c1cc(CN2CCOCC2)c(O)c2ncccc12", "note": "[Compound 2, 7-(Morpholinomethyl)-5-nitro-8-hydroxyquinoline]", "values": [{"measurement": "Ki", "setting": "Cathepsin B [1]", "value": "119 ± 4.2", "unit": "µM"}]}, {"smiles": "O=[N+]([O-])c1cc(CN2CCCC2)c(O)c2ncccc12", "note": "[Compound 3, 7-(Pyrrolidinomethyl)-5-nitro-8-hydroxyquinoline]", "values": [{"measurement": "Ki", "setting": "Cathepsin B [1]", "value": "118 ± 3.1", "unit": "µM"}]}, {"smiles": "CN1CCN(Cc2cc([N+](=O)[O-])c3cccnc3c2O)CC1", "note": "[Compound 4, 7-((4-Methylpiperazin-1-yl)methyl)-5-nitro-8-hydroxyquinoline]", "values": [{"measurement": "Ki", "setting": "Cathepsin B [1]", "value": "75.6 ± 4", "unit": "µM"}]}, {"smiles": "O=[N+]([O-])c1cc(CN2CCC(O)CC2)c(O)c2ncccc12", "note": "[Compound 5, 7-((4-Hydroxypiperidin-1-yl)methyl)-5-nitro-8-hydroxyquinoline]", "values": [{"measurement": "Ki", "setting": "Cathepsin B [1]", "value": "130 ± 3.4", "unit": "µM"}]}, {"smiles": "CC1CCN(Cc2cc([N+](=O)[O-])c3cccnc3c2O)CC1", "note": "[Compound 6, 7-((4-Methypiperidin-1-yl)methyl)-5-nitro-8-hydroxyquinoline]", "values": [{"measurement": "Ki", "setting": "Cathepsin B [1]", "value": "130 ± 3.5", "unit": "µM"}]}, {"smiles": "O=C(O)C1CCN(Cc2cc([N+](=O)[O-])c3cccnc3c2O)CC1", "note": "[Compound 7, 7-((4-Carboxypiperidin-1-yl)methyl)-5-nitro-8-hydroxyquinoline]", "values": [{"measurement": "Ki", "setting": "Cathepsin B [1]", "value": "89 ± 3.3", "unit": "µM"}]}, {"smiles": "CC(C)C[C@H](NC(=O)[C@H]1O[C@@H]1C(=O)O)C(=O)NCCCCN=C(N)N", "note": "[Compound E-64]", "values": [{"measurement": "inhibit cathepsin B", "setting": "Cathepsin B [2]", "value": "nanomolar range"}]}, {"smiles": "CCOC(=O)[C@H]1O[C@@H]1C(=O)N[C@@H](CC(C)C)C(=O)NCCC(C)C", "note": "[Compound E-64d]", "values": [{"measurement": "less potent in vitro than parent inhibitor", "setting": "Cathepsin B [2]", "value": "100-1000 fold"}]}]}
